Laboratory results as given in ChEMBL document CHEMBL3091402, “Identification of clinical candidates from the benzazepine class of histamine H3 receptor antagonists” (Bioorg Med Chem Lett, 2013).

How the values were obtained:
[1] = tested on: Rattus norvegicus; assay: Ex vivo binding affinity to histamine H3 receptor in rat cerebral cortex using [3H]-R-alpha-ethylhistamine at 3 mg/kg, po after 3 hrs by HPLC analysis; format: functional
[2] = target: T1, Histamine H3 receptor (Rattus norvegicus, UniProt Q9QYN8); assay: Displacement of [3H]-R-alpha-ethylhistamine from histamine H3 receptor in rat cerebral cortical tissue membranes after 45 mins by liquid scintillation spectrometry
T1 sequence (Q9QYN8 whole entry): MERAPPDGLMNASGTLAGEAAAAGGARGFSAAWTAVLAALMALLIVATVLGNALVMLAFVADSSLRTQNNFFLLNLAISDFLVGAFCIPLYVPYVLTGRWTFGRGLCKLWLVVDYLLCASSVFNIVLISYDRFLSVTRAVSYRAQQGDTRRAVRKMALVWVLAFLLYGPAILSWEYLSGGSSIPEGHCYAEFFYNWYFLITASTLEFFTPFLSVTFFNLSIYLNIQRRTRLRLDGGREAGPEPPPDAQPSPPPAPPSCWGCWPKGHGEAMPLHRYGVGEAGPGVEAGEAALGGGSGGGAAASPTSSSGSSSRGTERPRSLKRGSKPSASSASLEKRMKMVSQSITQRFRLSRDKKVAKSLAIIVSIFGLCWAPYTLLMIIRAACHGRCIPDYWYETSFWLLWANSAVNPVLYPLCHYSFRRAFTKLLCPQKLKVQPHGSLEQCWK

[3] = target: Histamine H3 receptor (Homo sapiens, UniProt Q9Y5N1); assay: Antagonist activity at human histamine H3 receptor expressed in CHOK1 cells assessed as inhibition of GTPgammaS binding; format: functional, cell-based, CHO-K1
Chain of Histamine H3 receptor (Homo sapiens, UniProt Q9Y5N1) (Q9Y5N1 whole entry): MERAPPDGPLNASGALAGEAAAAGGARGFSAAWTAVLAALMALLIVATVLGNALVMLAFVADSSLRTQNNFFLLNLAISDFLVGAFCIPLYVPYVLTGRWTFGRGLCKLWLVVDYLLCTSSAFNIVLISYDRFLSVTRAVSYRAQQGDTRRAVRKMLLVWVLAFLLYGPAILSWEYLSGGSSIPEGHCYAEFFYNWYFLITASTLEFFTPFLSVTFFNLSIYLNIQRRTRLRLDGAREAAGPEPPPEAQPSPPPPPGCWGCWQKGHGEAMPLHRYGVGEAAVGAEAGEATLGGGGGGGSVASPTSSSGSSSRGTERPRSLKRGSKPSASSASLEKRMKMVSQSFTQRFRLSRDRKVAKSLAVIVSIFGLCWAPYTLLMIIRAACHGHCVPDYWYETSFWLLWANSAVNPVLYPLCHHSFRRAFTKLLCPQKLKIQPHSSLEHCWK

[4] = tested on: Liver microsome; assay: Intrinsic clearance in rat liver microsomes; format: ADME
[5] = tested on: Rattus norvegicus; assay: Ex vivo binding affinity to histamine H3 receptor in rat cerebral cortex using [3H]-R-alpha-ethylhistamine at 0.3 mg/kg, po after 3 hrs by HPLC analysis; format: functional
[6] = tested on: Rattus norvegicus; assay: Reversal of RAMH-induced dipsogenia in po dosed Lister Hooded rat treated 2 hrs before RAMH challenge measured after 1 hr; format: functional
[7] = Ratio of drug level in brain to blood in rat at 3 mg/kg, po; format: ADME, organism-based; design: dose 3 mg/kg, route oral
[8] = tested on: Blood; assay: Drug level in rat blood at 3 mg/kg, po; format: ADME, organism-based; design: dose 3 mg/kg, route oral; conditions: in vivo, read-out: Drug uptake
[9] = tested on: Rattus norvegicus; assay: Ex vivo binding affinity to histamine H3 receptor in po dosed rat cerebral cortex using [3H]-R-alpha-ethylhistamine after 2 hrs by HPLC analysis; format: functional
[10] = tested on: Liver microsome; assay: Intrinsic clearance in human liver microsomes; format: ADME
[11] = Time dependent inhibition of CYP450 (unknown origin); format: ADME, Homo sapiens
[12] = target: hERG (KCNH2) (Homo sapiens, UniProt Q12809); assay: Inhibition of human ERG at 10 uM by patch clamp experiment
Chain of hERG (KCNH2) (Q12809 whole entry): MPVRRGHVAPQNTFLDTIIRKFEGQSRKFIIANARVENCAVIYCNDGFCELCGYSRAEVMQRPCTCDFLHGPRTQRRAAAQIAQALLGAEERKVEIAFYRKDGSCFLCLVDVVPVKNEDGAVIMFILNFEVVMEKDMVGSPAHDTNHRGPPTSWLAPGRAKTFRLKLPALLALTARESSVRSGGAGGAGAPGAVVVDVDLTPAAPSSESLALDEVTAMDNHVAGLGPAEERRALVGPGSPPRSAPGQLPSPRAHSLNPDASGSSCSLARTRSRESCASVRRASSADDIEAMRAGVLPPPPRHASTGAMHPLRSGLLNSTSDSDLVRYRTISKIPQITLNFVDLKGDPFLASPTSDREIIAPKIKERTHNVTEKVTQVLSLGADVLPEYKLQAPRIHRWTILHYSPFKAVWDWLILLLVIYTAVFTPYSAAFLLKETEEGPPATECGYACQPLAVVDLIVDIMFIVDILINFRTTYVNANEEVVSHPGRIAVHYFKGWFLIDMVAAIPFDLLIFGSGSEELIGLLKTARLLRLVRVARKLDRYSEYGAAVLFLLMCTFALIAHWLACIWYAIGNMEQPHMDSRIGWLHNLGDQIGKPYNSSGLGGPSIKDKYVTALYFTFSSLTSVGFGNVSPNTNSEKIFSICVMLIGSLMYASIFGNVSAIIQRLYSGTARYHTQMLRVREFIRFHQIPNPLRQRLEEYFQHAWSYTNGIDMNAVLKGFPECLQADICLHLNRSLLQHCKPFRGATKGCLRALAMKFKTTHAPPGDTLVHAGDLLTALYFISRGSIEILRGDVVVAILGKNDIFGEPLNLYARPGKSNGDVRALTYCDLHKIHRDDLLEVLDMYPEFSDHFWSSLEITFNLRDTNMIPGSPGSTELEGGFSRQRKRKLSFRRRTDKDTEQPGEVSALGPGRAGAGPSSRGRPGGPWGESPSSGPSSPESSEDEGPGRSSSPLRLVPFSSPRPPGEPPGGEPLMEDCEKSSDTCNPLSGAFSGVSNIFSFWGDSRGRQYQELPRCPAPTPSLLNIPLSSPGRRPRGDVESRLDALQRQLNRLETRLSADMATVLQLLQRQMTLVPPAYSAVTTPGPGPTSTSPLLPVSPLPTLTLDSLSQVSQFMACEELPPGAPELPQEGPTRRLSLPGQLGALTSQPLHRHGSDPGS

[13] = Aqueous solubility of the compound; format: physicochemical
[14] = target: Histamine H4 receptor (Homo sapiens, UniProt Q9H3N8); assay: Binding affinity to human histamine H4 receptor
Chain of Histamine H4 receptor (Q9H3N8 whole entry): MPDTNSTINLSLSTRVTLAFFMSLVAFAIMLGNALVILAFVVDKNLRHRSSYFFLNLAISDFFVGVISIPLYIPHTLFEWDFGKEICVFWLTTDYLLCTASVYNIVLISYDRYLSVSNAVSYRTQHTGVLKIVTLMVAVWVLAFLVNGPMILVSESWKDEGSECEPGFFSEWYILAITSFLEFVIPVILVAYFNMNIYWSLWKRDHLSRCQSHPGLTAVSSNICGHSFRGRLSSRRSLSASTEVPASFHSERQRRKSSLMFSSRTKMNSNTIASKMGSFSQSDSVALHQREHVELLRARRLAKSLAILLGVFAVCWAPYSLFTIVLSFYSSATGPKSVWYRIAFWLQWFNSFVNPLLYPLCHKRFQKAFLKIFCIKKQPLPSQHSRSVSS

[15] = target: Histamine H1 receptor (Homo sapiens, UniProt P35367); assay: Binding affinity to human histamine H1 receptor
Chain of Histamine H1 receptor (P35367 whole entry): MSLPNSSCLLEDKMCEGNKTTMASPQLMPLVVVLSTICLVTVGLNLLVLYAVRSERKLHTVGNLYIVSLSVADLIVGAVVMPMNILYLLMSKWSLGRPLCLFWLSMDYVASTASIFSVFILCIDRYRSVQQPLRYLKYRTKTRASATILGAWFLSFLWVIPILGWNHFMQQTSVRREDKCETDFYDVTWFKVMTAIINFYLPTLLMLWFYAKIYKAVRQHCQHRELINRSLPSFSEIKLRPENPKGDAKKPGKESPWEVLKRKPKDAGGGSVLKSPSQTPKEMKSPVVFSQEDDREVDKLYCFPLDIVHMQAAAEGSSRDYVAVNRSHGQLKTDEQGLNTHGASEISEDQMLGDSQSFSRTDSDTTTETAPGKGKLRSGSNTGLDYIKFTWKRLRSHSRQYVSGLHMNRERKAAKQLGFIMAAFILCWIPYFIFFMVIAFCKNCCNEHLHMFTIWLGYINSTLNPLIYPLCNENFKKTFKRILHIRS

[16] = target: Histamine H2 receptor (Homo sapiens, UniProt P25021); assay: Binding affinity to human histamine H2 receptor
Chain of Histamine H2 receptor (P25021 whole entry): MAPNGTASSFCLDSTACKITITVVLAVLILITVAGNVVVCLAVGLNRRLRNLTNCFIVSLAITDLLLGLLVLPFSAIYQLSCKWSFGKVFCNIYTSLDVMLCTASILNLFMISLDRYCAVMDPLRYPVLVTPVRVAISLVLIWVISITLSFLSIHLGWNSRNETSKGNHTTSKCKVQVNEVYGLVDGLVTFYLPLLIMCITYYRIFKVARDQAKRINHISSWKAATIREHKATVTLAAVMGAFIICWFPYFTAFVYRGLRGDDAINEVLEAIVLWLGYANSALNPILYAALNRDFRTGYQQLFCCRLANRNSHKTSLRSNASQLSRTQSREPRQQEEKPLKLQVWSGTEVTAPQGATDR

[17] = target: T1, Histamine H3 receptor; assay: Displacement of [3H]-R-alpha-ethylhistamine from rat histamine H3 receptor expressed in HEK293 cells after 45 mins by liquid scintillation spectrometry; format: cell-based
[18] = tested on: Rattus norvegicus; assay: Reversal of RAMH-induced dipsogenia in Lister Hooded rat at 3 mg/kg, po treated 2 hrs before RAMH challenge measured after 1 hr; format: functional
[19] = Ratio of drug level in brain to blood in rat at 3 mg/kg, po after 1 hr; format: ADME, organism-based; design: dose 3 mg/kg, route oral

| SMILES | Activity [1] [%] | Ki [2] [nM] | Ki [3] [nM] | CLH [4] [mL/min/g] | ED50 [6] [mg/kg] | concentration [8] [µM] | ED50 [9] [mg/kg] | also measured |
| --- | --- | --- | --- | --- | --- | --- | --- | --- |
| Cc1nc(Oc2ccc3c(c2)CCN(C2CCC2)CC3)ccc1C#N | 18 | 3.98 | 0.2 | – | – | – | – | – |
| c1cnn(-c2ccc(Oc3ccc4c(c3)CCN(C3CCC3)CC4)nc2)c1 | 73 | 3.16 | 0.501 | – | – | – | – | – |
| CC(C)NC(=O)c1ccc(Oc2ccc3c(c2)CCN(C2CCC2)CC3)nc1 | – | 0.631 | 0.126 | < 3 | – | – | – | Activity [5]: 19% |
| Cc1nnc(-c2ccc(Oc3ccc4c(c3)CCN(C3CCC3)CC4)nc2)o1 | 84 | 0.501 | 0.158 | – | 0.05 | 2.7 | 0.42 | Kp [7]: 2.8 |
| CNC(=O)c1ccc(Oc2ccc3c(c2)CCN(C2CCC2)CC3)nc1 [GSK189254] | 100 | 2.63 | 0.2 | 0.5 | 0.05 | 0.88 | 0.17 | CLH [10]: 0.5 mL/min/g; IC50 [11]: > 10000 nM; inhibition at 10 µM [12]: 36%; solubility [13]: > 10 mg/mL; Ki [14]: > 3160 nM; Ki [15]: > 2510 nM; Ki [16]: > 3160 nM; Ki [17]: 0.676 nM; Activity [18]: 100%; Kp at 1 h [19]: 1.3 |
| CNC(=O)c1ccc(Oc2ccc3c(c2)CCN(C2CCC2)CC3)nn1 | 79 | 7.94 | 1.26 | – | 0.33 | 0.7 | 0.85 | Kp [7]: 2.8 |
| CNC(=O)c1ccc(Oc2ccc3c(c2)CCN(C2CCCC2)CC3)nc1 | 61 | – | 0.501 | – | – | – | – | – |
| CCN(C)C(=O)c1ccc(Oc2ccc3c(c2)CCN(C2CCC2)CC3)nc1 | 56 | 10 | 0.631 | < 3 | – | 0.27 | – | Activity [18]: 94%; Kp at 1 h [19]: 1 |
